Laboratory results from patent US20250213583A1, “ANTIVIRAL PHARMACEUTICAL COMPOSITION AND USE THEREOF” (priority 2022, published 2025).

How the values were obtained:
[1] = tested on: p-MLKL and cleaved caspase-3; experiment: Western blot of cell death factors, SARS-CoV-2 B.1-infected hACE2-A549 cells; format: cell-based, human; settings: SARS-CoV-2 B.1-infected hACE2-A549, MOI 0.1, 30 μM, 48 hpi
Experimental: Cells were lysed using a radioimmunoprecipitation assay (RIPA) buffer (Cell Signaling Technology® cat #9806) and a protease/phosphatase inhibitor mixture (Cell Signaling Technology®, cat #5872). The lysed cells were electrophoresed on 12% and 15% acrylamide gels using sodium dodecyl sulfate polyacrylamide gels at 80 to 120 V for 90 minutes.
The gels were transblotted using polyvinylidene difluoride (PVDF) membranes (Millipore Ltd., cat #617203) at 30 V for 90 minutes. Proteins were transferred to a PVDF membrane and blocked at room temperature for one hour using Tris-buffered saline (TBS) and 0.1% Tween-20 (TBS-T, Bio-Rad Laboratories, Inc., cat #1706531) and 5% skim milk. […] The antibody-treated PVDF membrane was detected with a horseradish peroxidase (HRP) substrate (EMD Millipore Corporation) using VILBER (FUSION Solo S instrument). […]

[2] = tested on: Nrf2 signaling pathway (HMOX1, Nqo1); experiment: Nrf2 signaling pathway gene expression (mRNAseq DEG, RT-qPCR) in SARS-CoV-2 B.1-infected hACE2-A549 cells; format: cell-based, human; settings: SARS-CoV-2 B.1-infected hACE2-A549, MOI 0.1, 30 μM, 24 hpi
Seoul virus (SEOV) = experiment: microbe, parasite or virus in culture; format: cell-based
hACE2-A549 cells = experiment: Mitochondrial membrane potential by JC-1 staining, SARS-CoV-2 B.1-infected hACE2-A549 cells; format: cell-based, human; settings: SARS-CoV-2 B.1-infected hACE2-A549, 30 μM, 24 hpi
Experimental: JC-1 is a marker for mitochondrial membrane potential, and appears as a green fluorescent monomer (˜529 nm) at depolarization and abnormal mitochondrial membrane potential. JC-1 was diluted to 10 mM, and the JC-1 solution was treated at a final concentration of 2 μM in serum-free DMEM for 20 minutes at 37° C. and 5% CO2. Control cells were treated with H2O2 for 20 minutes. After JC-1 staining, nuclei were stained using Hoechst 33342 (Thermo Fisher Scientific, cat #62249) for five minutes at room temperature. After each staining step, cells were washed three times with pre-heated PBS and mounted on a glass slide. All steps were carried out with light blocked.
To evaluate mitochondrial homeostasis by treatment with Example Compound 1, hACE2-A549 cells and Calu-3 cells were infected with SARS-CoV-2 B.1 virus at MOI=0.1 and 1. After two hours, the cells were treated with Example Compound 1 at 30 μM, and JC-1 and MitoTracker staining of the hACE2A-549 cells and Calu-3 cells was performed at 24 hpi.

[3] = tested on: SARS-CoV-2 B.1 nucleocapsid protein; experiment: Western blot of nucleocapsid protein, hACE2-A549 cells infected with SARS-CoV-2 B.1; format: cell-based; settings: hACE2-A549, MOI=0.1, 24 hpi
Experimental: (§1) Vero E6 cells, Calu-3 cells (1×10^6 cells per well), and hACE2-A549 cells (0.5×10^6 cells per well) were seeded in 6-well plates and placed in an incubator at 37° C. and 5% CO2 conditions overnight. When the cells reached approximately 80% density, they were washed twice with pre-heated phosphate-buffered saline (PBS; Gibco™ cat #70011069), 1 mL of 2% FBS medium was added, and the cells were infected at the following multiplicity of infection [MOI] values at 37° C. for two hours (MOI=0.01 for Vero E6 cells, MOI=0.1 for hACE2-A549 cells, and MOI=1 for Calu-3 cells). The infected plate was shaken every 15 minutes to efficiently distribute the infectious material. After two hours of virus adsorption, Example Compound 1 was administered. Next, the supernatants and cells were harvested at 24 hours post infection (hpi).
(§2) Cells were lysed using a radioimmunoprecipitation assay (RIPA) buffer (Cell Signaling Technology® cat #9806) and a protease/phosphatase inhibitor mixture (Cell Signaling Technology®, cat #5872). […]
(§3) The gels were transblotted using polyvinylidene difluoride (PVDF) membranes (Millipore Ltd., cat #617203) at 30 V for 90 minutes. […] The antibody-treated PVDF membrane was detected with a horseradish peroxidase (HRP) substrate (EMD Millipore Corporation) using VILBER (FUSION Solo S instrument). […]

Calu-3 cells = experiment: Mitochondrial membrane potential by MitoTracker Orange CMTMRos and IFA, SARS-CoV-2 B.1-infected Calu-3 cells; format: cell-based; settings: SARS-CoV-2 B.1-infected Calu-3, 30 μM, 24 hpi
Experimental: Mitochondrial membrane potential probes MitoTracker™ Orange CMTMRos (Invitrogen™ cat #M7510) and JC-1 (Thermo Fisher Scientific, cat #T3168) were used to measure the recovery of mitochondrial membrane potential. Mitotracker™MOrange CMTMRos is a fluorescent dye that stains mitochondria in living cells and can be observed under a confocal microscope at a wavelength of 554 to 576 nm.
Calu-3 cells were seeded on a 4-chamber slide, infected with a virus and treated with Example Compound 1, and then treated with Mitotracker™MOrange CMTMRos at a final concentration of 500 nM in serum-free DMEM for 20 minutes at 37° C. and 5% CO2. Control cells were treated with carbonyl cyanide-p-trifluoromethoxyphenylhydrazone (FCCP) for 20 minutes. All steps were carried out with light blocked, the 4-chamber slide was washed three times with pre-heated PBS, and an immunofluorescence analysis (IFA) was performed.
To evaluate mitochondrial homeostasis by treatment with Example Compound 1, hACE2-A549 cells and Calu-3 cells were infected with SARS-CoV-2 B.1 virus at MOI=0.1 and 1. […]
In addition, after infecting the Calu-3 cells with SARS-CoV-2, the membrane potential of the infected cells was measured using MitoTracker™ Orange CMTMRos and IFA, and the results are shown in FIG. 5C.

[4] = tested on: SARS-CoV-2 BA.1 (omicron); experiment: microbe, parasite or virus in culture; format: cell-based
SARS-CoV-2 B.1 [5] = experiment: Plaque assay, Vero E6 cells infected with SARS-CoV-2 B.1; format: cell-based; settings: Vero E6, MOI=0.01, 30 μM, 24 hpi
[6] = tested on: SARS-CoV-2 B.1 nucleocapsid protein; experiment: Western blot of nucleocapsid protein, Vero E6 cells infected with SARS-CoV-2 B.1; format: cell-based; settings: Vero E6, MOI=0.01, 30, 20, 10, 1 μM, 24 hpi
Experimental: as §1, §2, §3

Zika virus (ZIKV) = experiment: microbe, parasite or virus in culture; format: cell-based
vaccinia virus (VACV) = experiment: microbe, parasite or virus in culture; format: cell-based
MFN1 and MFN2 = experiment: Western blot of mitochondrial fusion factors, SARS-CoV-2 B.1-infected Calu-3 cells; format: cell-based; settings: SARS-CoV-2 B.1-infected Calu-3, 24 hpi
[7] = tested on: interferon signaling and pro-inflammatory cytokine genes (Ifnβ, Ifit1, Ifit2, Il-6, Tnfα); experiment: Inflammatory cytokine gene expression (mRNAseq DEG, RT-qPCR) in SARS-CoV-2 B.1-infected hACE2-A549 cells; format: cell-based, human
SARS-CoV-2 B.1 [8] = experiment: Plaque assay, hACE2-A549 cells infected with SARS-CoV-2 B.1; format: cell-based; settings: hACE2-A549, MOI=0.1, 30 μM, 24 hpi
SARS-CoV-2 B.1 [9] = experiment: RT-qPCR of viral RNA, hACE2-A549 cells infected with SARS-CoV-2 B.1; format: cell-based; settings: for EC50: read-out: EC50 against the SARS-CoV-2 B.1 virus; for inhibited the replication of SARS-CoV-2 B.1 (RT-qPCR): 24 hpi
SARS-CoV-2 B.1 [10] = experiment: RT-qPCR of viral RNA, Vero E6 cells infected with SARS-CoV-2 B.1; format: cell-based
[11] = tested on: SARS-CoV-2 B.1.617.2 (delta); experiment: microbe, parasite or virus in culture; format: cell-based
[12] = tested on: mitochondrial OXPHOS complexes I, II, III, IV, and V; experiment: Mitochondrial OXPHOS complex expression (mRNAseq DEG) in SARS-CoV-2 B.1-infected hACE2-A549 cells; format: cell-based, human; settings: SARS-CoV-2 B.1-infected hACE2-A549, MOI 0.1, 30 μM, 24 hpi
[13] = Severe acute respiratory syndrome coronavirus 2
[14] = SARS-CoV-2 B.1-infected hACE2-A549, 30 μM and 1 μM

In the case of `O=S1(=O)CCN(Cc2cc(NC3CCOCC3)c3[nH]c(-c4ccccc4)cc3c2)CC1` [Example Compound 1, 5-[(1,1-dioxido-4-thiomorpholinyl)methyl]-2-phenyl-N-(tetrahydro-2H-pyran-4-yl)-1H-indol-7-amine], the “necrosis-related p-MLKL protein and cell death-related cCaspase 3 protein (Western blot)” value [1] is reported as “inhibited”, the “Nrf2 signaling pathway (mRNAseq, DEG)” value [2] is reported as “up-regulated” and the “gene expression of HMOX1 and Nqo1 (RT-qPCR), compared to untreated infected cells” value [2] is reported as “significant increase”. For the same compound, the EC50 (Seoul virus (SEOV); Orthohantavirus seoulense, Vero C1008, read-out: EC50, SEOV) was 1900 nM, the “reduced the expression level of SEOV (RT-qPCR)” value (Seoul virus (SEOV); Vero E6, 24 hpi) was “about 3 times” and the “mitochondrial membrane potential (JC-1 Aggregate, RED) intensity” value (hACE2-A549 cells) was “intensity level similar to that of the uninfected cells”. For the same compound, the “expression of SARS-CoV-2 B.1 nucleocapsid protein (Western blot)” value [3] was “decreased in a dose-dependency”, the “SARS-CoV-2 nucleocapsid protein (IFA)” value (Calu-3 cells) was “significant decrease” and the “mitochondrial membrane potential, MitoTracker accumulation” value (Calu-3 cells) was “accumulation of MitoTracker”. For the same compound, the “antiviral effect against SARS-CoV-2 BA.1 (omicron) (RT-qPCR)” value [4] was ~30 fold, the EC50 [4, 13] was 1100 nM and the “infectious particles of SARS-CoV-2 B.1 reduced compared to untreated cells (plaque assay)” value (SARS-CoV-2 B.1 [5]) was 1,000 times. For the same compound, the “expression of SARS-CoV-2 B.1 nucleocapsid protein (Western blot)” value [6] was “decreased in a dose-dependency”, the “reduced the expression level of ZIKV (RT-qPCR)” value (Zika virus (ZIKV); Vero E6) was “about 16 times” and the EC50 (Zika virus (ZIKV); Zika virus, Vero C1008, Vero E6, 48 hpi) was 7800 nM. For the same compound, the EC50 (vaccinia virus (VACV); Orthopoxvirus vaccinia, Vero C1008, read-out: EC50, VACV) was 6600 nM, the “reduced the expression level of VACV (RT-qPCR)” value (vaccinia virus (VACV); Vero E6, 24 hpi) was “about 15 times” and the “MFN1 and MFN2 protein level (Western blot)” value (MFN1 and MFN2) was “overexpression was suppressed”. For the same compound, the “expression of the interferon signaling and pro-inflammatory cytokine genes (mRNAseq, DEG)” value ([7]; SARS-CoV-2 B.1-infected hACE2-A549) was “inhibited the expression”, the “expression of interferon-related genes Ifnβ, Ifit1, and Ifit2 (RT-qPCR)” value [7, 14] was “significantly down-regulated” and the “induction of pro-inflammatory cytokine genes Il-6 and Tnfα (RT-qPCR)” value [7, 14] was “reduced the induction”. The “infectious particles of SARS-CoV-2 B.1 reduced (plaque assay)” value (SARS-CoV-2 B.1 [8]) was 100 fold, the EC50 (SARS-CoV-2 B.1 [9]; Severe acute respiratory syndrome coronavirus 2, hACE2-A549, MOI=0.01, 24 hpi) was 1400 nM and the EC50 (SARS-CoV-2 B.1 [9]; Severe acute respiratory syndrome coronavirus 2, hACE2-A549, MOI=0.1, 24 hpi) was 7000 nM. The “inhibited the replication of SARS-CoV-2 B.1 (RT-qPCR)” value (SARS-CoV-2 B.1 [9]; hACE2-A549, MOI=0.01, 30 µM) was “about 100 times”, the “inhibited the replication of SARS-CoV-2 B.1 (RT-qPCR)” value (SARS-CoV-2 B.1 [9]; hACE2-A549, MOI=0.1, 30 μM) was “about 100 times” and the EC50 (SARS-CoV-2 B.1 [10]; Severe acute respiratory syndrome coronavirus 2, Vero C1008, Vero E6, MOI=0.01, 24 hpi, read-out: EC50 against SARS-CoV-2 B.1) was 1100 nM. The “SARS-CoV-2 B.1 virus replication inhibited compared to untreated cells (RT-qPCR)” value (SARS-CoV-2 B.1 [10]; Vero E6, MOI=0.01, 30 μM, 24 hpi) was “up to 1,000 times”, the “antiviral effect against SARS-CoV-2 B.1.617.2 (delta) (RT-qPCR)” value [11] was “about 1000 fold” and the EC50 [11, 13] was 1200 nM. For the same compound, the “expression of mitochondrial OXPHOS complexes I to V (mRNAseq, DEG)” value [12] was “up-regulated expression of all five OXPHOS complexes”.
